# Results from patent US20090270371A1, “QUINOLINE DERIVATIVES USEFUL IN THE TREATMENT OF MGLUR5 RECEPTOR-MEDIATED DISORDERS” (priority 2005, published 2009).
# Biological target: T1, rat mGluR5 receptors (Rattus norvegicus, UniProt P31424)
# T1 construct: rat cerebro-cortical membrane preparation was used; from tissue; host or cells: rat cerebral cortex membranes
# Assay: mGluR5 receptor binding test, rat cerebro-cortical membrane preparation, [3H]-M-MPEP
# Details: affinity for rat mGluR5 receptors; [3H]-M-MPEP (2 nM) radioligand
# Procedure, shortened: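 Radioligand binding used rat cerebro-cortical membranes with 2 nM [3H]-M-MPEP. Nonspecific binding was defined with 10 μM M-MPEP. The method follows a modification of a published procedure.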
# T1 sequence (P31424 21-1203): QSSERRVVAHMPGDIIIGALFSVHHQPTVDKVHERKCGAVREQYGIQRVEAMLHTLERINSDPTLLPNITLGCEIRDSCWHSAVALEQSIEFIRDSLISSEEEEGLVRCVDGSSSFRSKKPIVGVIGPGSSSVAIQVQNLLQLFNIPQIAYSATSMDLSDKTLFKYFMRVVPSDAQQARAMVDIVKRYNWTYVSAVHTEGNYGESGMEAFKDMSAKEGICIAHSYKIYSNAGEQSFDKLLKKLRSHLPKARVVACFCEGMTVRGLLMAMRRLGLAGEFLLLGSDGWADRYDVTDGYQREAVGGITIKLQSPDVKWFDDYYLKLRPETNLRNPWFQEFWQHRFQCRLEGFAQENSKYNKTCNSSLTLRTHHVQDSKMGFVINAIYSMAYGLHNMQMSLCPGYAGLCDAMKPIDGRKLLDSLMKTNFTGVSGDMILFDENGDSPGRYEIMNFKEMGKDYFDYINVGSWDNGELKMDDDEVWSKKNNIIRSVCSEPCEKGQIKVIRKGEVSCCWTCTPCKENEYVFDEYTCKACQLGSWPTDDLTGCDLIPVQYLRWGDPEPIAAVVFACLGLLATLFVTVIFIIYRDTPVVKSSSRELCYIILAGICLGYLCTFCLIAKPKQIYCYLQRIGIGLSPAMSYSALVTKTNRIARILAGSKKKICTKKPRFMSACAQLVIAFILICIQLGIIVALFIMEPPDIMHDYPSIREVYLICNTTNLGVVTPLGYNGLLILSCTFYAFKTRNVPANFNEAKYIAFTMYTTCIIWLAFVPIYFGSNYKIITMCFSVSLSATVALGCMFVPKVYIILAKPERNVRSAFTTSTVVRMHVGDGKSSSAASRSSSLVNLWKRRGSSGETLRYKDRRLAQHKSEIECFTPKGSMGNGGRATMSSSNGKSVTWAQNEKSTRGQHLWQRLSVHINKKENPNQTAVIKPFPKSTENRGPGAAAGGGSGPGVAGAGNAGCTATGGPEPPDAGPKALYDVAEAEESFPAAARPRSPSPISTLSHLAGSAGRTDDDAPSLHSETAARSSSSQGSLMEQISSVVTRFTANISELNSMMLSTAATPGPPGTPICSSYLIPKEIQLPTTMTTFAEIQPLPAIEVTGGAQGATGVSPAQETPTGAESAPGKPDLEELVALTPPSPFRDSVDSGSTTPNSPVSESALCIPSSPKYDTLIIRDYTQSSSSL
row,Ki [nM],SMILES
1,< 200,COc1ccc(S(=O)(=O)c2cnc3cc(Cl)ccc3c2N2CCC(C)CC2)cc1OC [Compound 196]
2,200 to 500,Cc1ccc(S(=O)(=O)c2cnc3ccc(F)cc3c2N2CCC(C)CC2)cc1 [Compound 14]
3,200 to 500,CCN(CC)c1c(S(=O)(=O)c2ccc(C)cc2)cnc2ccccc12 [Compound 76]
4,200 to 500,Cc1ccc(S(=O)(=O)c2cnc3ccc(Cl)cc3c2N2CCC(C)CC2)cc1Cl [Compound 219]
5,> 500,O=S(=O)(c1ccccc1)c1cnc2cc3c(cc2c1N1CCN(c2ccccc2)CC1)OCCO3 [Compound 115]
6,200 to 500,O=S(=O)(c1ccc(Cl)cc1)c1cnc2ccc(F)cc2c1N1CCC(F)(F)CC1 [Compound 348]
7,> 500,COc1ccc(S(=O)(=O)c2cnc3cc(Cl)ccc3c2N2CCOCC2)cc1 [Compound 322]
8,200 to 500,O=S(=O)(c1ccc(F)c(F)c1)c1cnc2c(F)cccc2c1N1CCOCC1 [Compound 343]
9,> 500,COc1ccc2ncc(S(=O)(=O)c3ccccc3)c(N3CCC(C)CC3)c2c1 [Compound 109]
10,200 to 500,COc1ccc2ncc(S(=O)(=O)c3ccc(C)c(F)c3)c(N3CCC(C)CC3)c2c1 [Compound 247]
11,< 200,O=S(=O)(c1ccc(F)c(Cl)c1)c1cnc2cc(Cl)ccc2c1N1CCOCC1 [Compound 334]
12,200 to 500,N#Cc1cccc(S(=O)(=O)c2cnc3cc(F)ccc3c2N2CCOCC2)c1 [Compound 311]
13,> 500,COc1ccc2ncc(S(=O)(=O)c3ccccc3)c(N3CCN(Cc4ccccc4)CC3)c2c1 [Compound 111]
14,> 500,COc1ccc2ncc(S(=O)(=O)c3cccc(C#N)c3)c(N3CCOCC3)c2c1 [Compound 273]
15,200 to 500,CC1CCN(c2c(S(=O)(=O)c3ccc(F)cc3)cnc3cc(F)ccc23)CC1 [Compound 172]
16,< 200,COc1ccc2ncc(S(=O)(=O)c3ccc(C)c(Cl)c3)c(N3CCC(C)CC3)c2c1 [Compound 248]
17,< 200,COc1ccc(S(=O)(=O)c2cnc3ccc(C)cc3c2N2CCC(C)CC2)cc1Cl [Compound 162]
18,> 500,CC1CCN(c2c(S(=O)(=O)c3cc(F)cc(F)c3)cnc3ccc(F)cc23)CC1 [Compound 139]
19,> 500,O=S(=O)(c1cc(Cl)cc(Cl)c1)c1cnc2ccc(Cl)cc2c1N1CCOCC1 [Compound 293]
20,> 500,O=S(=O)(c1cccc(F)c1)c1cnc2cc(Cl)ccc2c1N1CCOCC1 [Compound 325]
21,< 200,COc1cccc(S(=O)(=O)c2cnc3ccc(C)cc3c2N2CCC(C)CC2)c1 [Compound 160]
22,< 200,COc1cccc(S(=O)(=O)c2cnc3ccc(Cl)cc3c2N2CCC(C)CC2)c1 [Compound 215]
23,< 200,"Cc1ccc(S(=O)(=O)c2cnc3ccccc3c2N2CCC(C)CC2)cc1 [Compound 2, 3-(4-Methyl-benzenesulfonyl)-4-(4-methyl-piperidin-1-yl)-quinoline]"
24,< 200,O=S(=O)(c1cccc(Cl)c1)c1cnc2cc(Cl)ccc2c1N1CCOCC1 [Compound 328]
25,> 500,CCc1ccc2ncc(S(=O)(=O)c3ccc(OC)cc3)c(N3CCN(C)CC3)c2c1 [Compound 127]
26,< 200,"Cc1ccc(S(=O)(=O)c2cnc3ccccc3c2N2CCCC(C)C2)cc1 (centres unmarked) [Compound 4, 3-(4-Methyl-benzenesulfonyl)-4-(3-methyl-piperidin-1-yl)-quinoline]"
27,200 to 500,Cc1ccc(S(=O)(=O)c2cnc3cc(F)ccc3c2N2CCOCC2)cc1C [Compound 314]

row,Ki [nM],SMILES
1,200 to 500,Cc1ccc(S(=O)(=O)c2cnc3ccc(F)cc3c2N2CCOCC2)cc1Cl [Compound 288]
2,< 200,COc1cccc(S(=O)(=O)c2cnc3cc(Cl)ccc3c2N2CCC(C)CC2)c1 [Compound 198]
3,200 to 500,Cc1ccc(S(=O)(=O)c2cnc3c(F)cccc3c2N2CCOCC2)cc1F [Compound 341]
4,> 500,CCOc1ccc2ncc(S(=O)(=O)c3ccccc3)c(N3CCC(C)CC3)c2c1 [Compound 116]
5,200 to 500,COc1ccc(S(=O)(=O)c2cnc3cc(Cl)ccc3c2N2CCOCC2)cc1Cl [Compound 330]
6,> 500,COc1ccc(S(=O)(=O)c2cnc3ccc(Cl)cc3c2NCc2ccc(C)cc2)cc1 [Compound 122]
7,> 500,Cc1ccc(S(=O)(=O)c2cnc3ccc(C)cc3c2NCc2ccc(F)cc2)cc1 [Compound 29]
8,> 500,O=S(=O)(c1cc(F)cc(F)c1)c1cnc2cc(F)ccc2c1N1CCOCC1 [Compound 310]
9,200 to 500,COc1ccc(S(=O)(=O)c2cnc3ccc(C)cc3c2N2CCC(C)CC2)cc1 [Compound 157]
10,< 200,CC1CCN(c2c(S(=O)(=O)c3cccc(Cl)c3)cnc3ccc(F)cc23)CC1 [Compound 148]
11,200 to 500,O=S(=O)(c1ccc(F)c(F)c1)c1cnc2cc(F)ccc2c1N1CCOCC1 [Compound 315]
12,> 500,COc1ccc(N2CCN(c3c(S(=O)(=O)c4ccc(Cl)cc4)cnc4ccc(C)cc34)CC2)cc1 [Compound 75]
13,< 200,CC1CCN(c2c(S(=O)(=O)c3ccc(F)c(F)c3)cnc3cc(Cl)ccc23)CC1 [Compound 206]
14,200 to 500,COc1ccc(S(=O)(=O)c2cnc3ccc(Cl)cc3c2N2CCC(C)CC2)cc1OC [Compound 225]
15,< 200,Cc1ccc(S(=O)(=O)c2cnc3cc(Cl)ccc3c2N2CCOCC2)cc1C [Compound 327]
16,> 500,COc1ccc2ncc(S(=O)(=O)c3ccc(C)c(Cl)c3)c(N3CCOCC3)c2c1 [Compound 276]
17,> 500,Cc1ccc(S(=O)(=O)c2cnc3ccc(C)cc3c2N2CCCCCC2)cc1 [Compound 86]
18,> 500,COc1ccc(S(=O)(=O)c2cnc3ccc(OC)cc3c2N2CCCCC2)cc1 [Compound 44]
19,> 500,O=S(=O)(c1ccccc1)c1cnc2ccc(F)cc2c1N1CCCCC1 [Compound 107]
20,> 500,CCN1CCN(c2c(S(=O)(=O)c3ccc(C)c(C)c3)cnc3cc4c(cc23)OCO4)CC1 [Compound 19]
21,< 200,CC1CCN(c2c(S(=O)(=O)c3ccc(C#N)cc3)cnc3c(F)cccc23)CC1 [Compound 234]
22,> 500,Cc1ccc(S(=O)(=O)c2cnc3ccccc3c2N2CCN(c3cc(C)ccc3C)CC2)cc1 [Compound 70]
23,< 200,O=S(=O)(c1ccc(Cl)c(Cl)c1)c1cnc2cc(F)ccc2c1N1CCOCC1 [Compound 316]
24,< 200,CC1CCN(c2c(S(=O)(=O)c3ccc(Cl)cc3)cnc3ccc(Cl)cc23)CC1 [Compound 213]
25,> 500,COc1cccc(S(=O)(=O)c2cnc3ccc(Cl)cc3c2N2CCOCC2)c1 [Compound 296]
26,> 500,N#Cc1cccc(S(=O)(=O)c2cnc3ccc(Cl)cc3c2N2CCOCC2)c1 [Compound 299]
27,> 500,Cc1ccc2ncc(S(=O)(=O)c3ccc(C)c(F)c3)c(N3CCOCC3)c2c1 [Compound 267]

row,Ki [nM],SMILES
1,> 500,CCOC(=O)N1CCN(c2c(S(=O)(=O)c3ccc(Cl)cc3)cnc3ccccc23)CC1 [Compound 129]
2,> 500,Cc1ccc(S(=O)(=O)c2cnc3cc4c(cc3c2N2CCC(C)CC2)OCCO4)cc1 [Compound 92]
3,200 to 500,Cc1cc(C)cc(S(=O)(=O)c2cnc3ccc(C)cc3c2N2CCC(C)CC2)c1 [Compound 168]
4,< 200,COc1ccc(S(=O)(=O)c2cnc3cc(F)ccc3c2N2CCC(C)CC2)cc1 [Compound 185]
5,< 200,Cc1ccc2ncc(S(=O)(=O)c3ccc(C)c(Cl)c3)c(N3CCC(C)CC3)c2c1 [Compound 167]
6,< 200,CC1CCN(c2c(S(=O)(=O)c3ccc(F)cc3)cnc3cc(Cl)ccc23)CC1 [Compound 192]
7,< 200,Cc1ccc(S(=O)(=O)c2cnc3c(F)cccc3c2N2CCC(C)CC2)cc1 [Compound 235]
8,> 500,COc1ccc2ncc(S(=O)(=O)c3ccc(Cl)cc3)c(N3CCN(Cc4ccccc4)CC3)c2c1 [Compound 106]
9,> 500,O=S(=O)(c1ccc(F)cc1)c1cnc2c(F)cccc2c1N1CCOCC1 [Compound 337]
10,< 200,CC1CCN(c2c(S(=O)(=O)c3cccc(C#N)c3)cnc3ccc(Cl)cc23)CC1 [Compound 210]
11,> 500,COc1ccc2ncc(S(=O)(=O)c3cccc(Cl)c3)c(N3CCOCC3)c2c1 [Compound 274]
12,< 200,CC1CCN(c2c(S(=O)(=O)c3cc(Cl)cc(Cl)c3)cnc3c(F)cccc23)CC1 [Compound 226]
13,< 200,Cc1ccc(S(=O)(=O)c2cnc3cc(F)ccc3c2N2CCOCC2)cc1Cl [Compound 312]
14,< 200,Cc1ccc(S(=O)(=O)c2cnc3cc(F)ccc3c2N2CCC(C)CC2)cc1C [Compound 183]
15,> 500,CC1CCN(c2c(S(=O)(=O)c3ccccc3)cnc3c(F)cccc23)CC1 [Compound 230]
16,> 500,COc1ccc2ncc(S(=O)(=O)c3ccc(Cl)cc3)c(N3CCC(C)CC3)c2c1 [Compound 15]
17,> 500,Cc1ccc(S(=O)(=O)c2cnc3cc4c(cc3c2N2CCCCC2)OCCO4)cc1 [Compound 42]
18,> 500,COc1ccc2ncc(S(=O)(=O)c3ccc(F)cc3)c(N3CCOCC3)c2c1 [Compound 275]
19,> 500,COc1ccc2ncc(S(=O)(=O)c3cc(F)cc(F)c3)c(N3CCOCC3)c2c1 [Compound 272]
20,> 500,CCc1ccc2ncc(S(=O)(=O)c3ccc(Cl)cc3)c(NCc3ccc(C)cc3)c2c1 [Compound 30]
21,> 500,COc1ccc(S(=O)(=O)c2cnc3ccc(F)cc3c2N2CCOCC2)cc1Cl [Compound 284]
22,> 500,O=S(=O)(c1ccc(Cl)cc1)c1cnc2ccc(F)cc2c1N1CCN(Cc2ccccc2)CC1 [Compound 100]
23,< 200,CC1CCN(c2c(S(=O)(=O)c3cc(Cl)cc(Cl)c3)cnc3ccc(Cl)cc23)CC1 [Compound 208]
24,< 200,CC1CCN(c2c(S(=O)(=O)c3ccc(F)c(Cl)c3)cnc3cc(F)ccc23)CC1 [Compound 187]
25,> 500,CCc1ccc2ncc(S(=O)(=O)c3ccc(C)cc3)c(N(CC)CC)c2c1 [Compound 83]
26,> 500,O=S(=O)(c1ccccc1)c1cnc2cc3c(cc2c1N1CCCCC1)OCCO3 [Compound 135]
